Results from patent publication US10738042B2, “Phosphonamidates that are Bcl family antagonists for use in clinical management of conditions caused or mediated by senescent cells and for treating cancer” (Unity Biotechnology, priority 2018, dated 2020).

Experiments:
[1] = system: 3MR or INK-ATTAC mice exposed to cigarette smoke; assay: Cigarette smoke COPD model, oxygen saturation by pulse oximeter; type: in vivo, mouse; details: after two months of cigarette smoke exposure; FIG. 8
Description: The mice used in this study include the 3MR strain, described in US 2017/0027139 A1 and in Demaria et al., Dev Cell. 2014 Dec. 22; 31(6): 722-733. The 3MR mouse has a transgene encoding thymidine kinase that converts the prodrug ganciclovir (GCV) to a compound that is lethal to cells. The enzyme in the transgene is placed under control of the p16 promoter, which causes it to be specifically expressed in senescent cells. Treatment of the mice with GCV eliminates senescent cells.
Other mice used in this study include the INK-ATTAC strain, described in US 2015/0296755 A1 and in Baker et al., Nature 2011 Nov. 2; 479(7372):232-236. The INK-ATTAC mouse has a transgene encoding switchable caspase 8 under control of the p16 promoter. The caspase 8 can be activated by treating the mice with the switch compound AP20187, whereupon the caspase 8 directly induces apoptosis in senescent cells, eliminating them from the mouse.
To conduct the experiment, six-week-old 3MR (n=35) or INK-ATTAC (n=35) mice were chronically exposed to cigarette smoke generated from a Teague TE-10 system, an automatically-controlled cigarette smoking machine that produces a combination of side-stream and mainstream cigarette smoke in a chamber, which is transported to a collecting and mixing chamber where varying amounts of air is mixed with the smoke mixture. The COPD protocol was adapted from the COPD core facility at Johns Hopkins University (Rangasamy et al., 2004, J. Clin. Invest. 114:1248-1259; Yao et al., 2012, J. Clin. Invest. 122:2032-2045).
Mice received a total of 6 hours of cigarette smoke exposure per day, 5 days a week for 6 months. Each lighted cigarette (3R4F research cigarettes containing 10.9 mg of total particulate matter (TPM), 9.4 mg of tar, and 0.726 mg of nicotine, and 11.9 mg carbon monoxide per cigarette [University of Kentucky, Lexington, Ky.]) was puffed for 2 seconds and once every minute for a total of 8 puffs, with the flow rate of 1.05 L/min, to provide a standard puff of 35 cm3. The smoke machine was adjusted to produce a mixture of side stream smoke (89%) and mainstream smoke (11%) by smoldering 2 cigarettes at one time. The smoke chamber atmosphere was monitored for total suspended particulates (80-120 mg/m3) and carbon monoxide (350 ppm). […]
After two months of cigarette smoke (CS) exposure, lung function was assessed by monitoring oxygen saturation using the MouseSTAT PhysioSuite™ pulse oximeter (Kent Scientific). […] Mice were monitored for 30 seconds and the average peripheral capillary oxygen saturation (SpO2) measurement over this duration was calculated.

[2] = system: cancer cells in human patients; details: cited from earlier work
[3] = system: p16, IL-6, MMP13 expression in the operated joint; assay: Osteoarthritis model (ACL surgery), qRT-PCR of senescence markers and SASP factors in operated joints; type: in vivo, mouse; details: 5.8 μg per operated knee intra-articular, 4 weeks post-surgery
Method: (§1) The model was implemented as follows. C57BL/6J mice underwent surgery to cut the anterior cruciate ligament of one rear limb to induce osteoarthritis in the joint of that limb. During week 3 and week 4 post-surgery, the mice were treated with 5.8 μg of Nutlin-3A (n=7) per operated knee by intra-articular injection, q.o.d. for 2 weeks. At the end of 4 weeks post-surgery, joints of the mice were monitored for presence of senescent cells, assessed for function, monitored for markers of inflammation, and underwent histological assessment.
Two control groups of mice were included in the studies performed: one group comprising C57BL/6J or 3MR mice that had undergone a sham surgery (n=3) (i.e., surgical procedures followed except for cutting the ACL) and intra-articular injections of vehicle parallel to the GCV (ganciclovir) treated group; and one group comprising C57BL/6J or 3MR mice that had undergone an ACL surgery and received intra-articular injections of vehicle (n=5) parallel to the GCV-treated group. RNA from the operated joints of mice from the Nutlin-3A treated mice was analyzed for expression of SASP factors (mmp3, IL-6) and senescence markers (p16). qRT-PCR was performed to detect mRNA levels.

[4] = system: C57BL/6J mice with ACL surgery-induced osteoarthritis; assay: Osteoarthritis model, weight bearing test; type: in vivo, mouse; details: 4 weeks post-surgery; FIG. 6A
Method: as §1
Function of the limbs was assessed 4 weeks post-surgery by a weight bearing test to determine which leg the mice favored. The mice were allowed to acclimate to the chamber on at least three occasions prior to taking measurements. Mice were maneuvered inside the chamber to stand with one hind paw on each scale. The weight that was placed on each hind limb was measured over a three second period. At least three separate measurements were made for each animal at each time point. The results were expressed as the percentage of the weight placed on the operated limb versus the contralateral unoperated limb.

[5] = system: C57BL/6J mice with ACL surgery-induced osteoarthritis; assay: Osteoarthritis model, histopathology of joint tissue; type: in vivo, mouse; details: FIGS. 6B-6D
Method: as §1

[6] = system: SASP factors and senescent cell markers in the aortic arch; assay: Atherosclerosis model, RT-PCR of SASP factors and senescent cell markers in aortic arches; type: in vivo, mouse; details: HFD, 25 mg/kg intraperitoneally
Method: Two groups of LDLR−/− mice (10 weeks) are fed a high fat diet (HFD) (Harlan Teklad TD.88137) having 42% calories from fat, beginning at Week 0 and throughout the study. Two groups of LDLR−/− mice (10 weeks) are fed normal chow (−HFD). From weeks 0-2, one group of HFD mice and −HFD mice are treated with Nutlin-3A (25 mg/kg, intraperitoneally). One treatment cycle is 14 days treatment, 14 days off. Vehicle is administered to one group of HFD mice and one group of −HFD mice. At week 4 (timepoint 1), one group of mice are sacrificed and to assess presence of senescent cells in the plaques. For the some of the remaining mice, Nutlin-3A and vehicle administration is repeated from weeks 4-6. […]
At the end of timepoint 1, LDLR−/− mice fed a HFD and treated with Nutlin-3A or vehicle were sacrificed (n=3, all groups), and the aortic arches were dissected for RT-PCR analysis of SASP factors and senescent cell markers. Values were normalized to GAPDH and expressed as fold-change versus age-matched, vehicle-treated LDLR−/− mice on a normal diet.
At the end of timepoint 2, LDLR−/− mice fed a HFD and treated with Nutlin-3A or vehicle (n=3 for all groups) were sacrificed, and aortic arches were dissected for RT-PCR analysis of SASP factors and senescent cell markers. Values were normalized to GAPDH and expressed as fold-change versus age-matched, vehicle-treated LDLR−/− mice on a normal diet.

[7] = system: LDLR-/- mice fed a high fat diet; assay: Atherosclerosis model, Sudan IV staining of aortas for plaque; type: in vivo, mouse; details: HFD; 25 mg/kg intraperitoneally; timepoint 3 (week 12); FIG. 9
Method: (§2) Two groups of LDLR−/− mice (10 weeks) are fed a high fat diet (HFD) (Harlan Teklad TD.88137) having 42% calories from fat, beginning at Week 0 and throughout the study. Two groups of LDLR−/− mice (10 weeks) are fed normal chow (−HFD). From weeks 0-2, one group of HFD mice and −HFD mice are treated with Nutlin-3A (25 mg/kg, intraperitoneally). One treatment cycle is 14 days treatment, 14 days off. Vehicle is administered to one group of HFD mice and one group of −HFD mice. At week 4 (timepoint 1), one group of mice are sacrificed and to assess presence of senescent cells in the plaques. For the some of the remaining mice, Nutlin-3A and vehicle administration is repeated from weeks 4-6. At week 8 (timepoint 2), the mice are sacrificed and to assess presence of senescent cells in the plaques. The remaining mice are treated with Nutlin-3A or vehicle from weeks 8-10. At week 12 (timepoint 3), the mice are sacrificed and to assess the level of plaque and the number of senescent cells in the plaques.
(§3) At the end of timepoint 3, LDLR−/− mice fed a HFD and treated with Nutlin-3A or vehicle (n=3 for all groups) were sacrificed, and aortas were dissected and stained with Sudan IV to detect the presence of lipid. Body composition of the mice was analyzed by MRI, and circulating blood cells were counted by Hemavet™.

[8] = system: LDLR-/- mice fed a high fat diet; assay: Atherosclerosis model, body composition (MRI) and circulating blood cell counts (Hemavet); type: in vivo, mouse; details: timepoint 3 (week 12)
Method: as §2, §3

Structure (SMILES): CC1(C)CCC(c2ccc(Cl)cc2)=C(CN2CCN(c3ccc(C(=O)NS(=O)(=O)c4ccc(N[C@H](CCN5CCOCC5)CSc5ccccc5)c(S(=O)(=O)C(F)(F)F)c4)cc3)CC2)C1 [ABT-263]
- SpO2 levels compared with untreated controls [1]: statistically significant increases

Structure (SMILES): Nc1nc(O)c2ncn(COC(CO)CO)c2n1 [ganciclovir]
- SpO2 levels compared with untreated controls [1]: statistically significant increases

Structure (SMILES): CN(C)CC[C@H](CSc1ccccc1)Nc1ccc(S(=O)(=O)NC(=O)c2ccc(N3CCN(Cc4ccccc4-c4ccc(Cl)cc4)CC3)cc2)cc1[N+](=O)[O-] [ABT-737]
- effect against cancer cells in human patients [2]: effective against some types of cancer cells

Structure (SMILES): COc1ccc(C2=N[C@@H](c3ccc(Cl)cc3)[C@@H](c3ccc(Cl)cc3)N2C(=O)N2CCNC(=O)C2)c(OC(C)C)c1 [Nutlin-3A]
- expression of p16 in the tissue ([3]; q.o.d. for 2 weeks, FIG. 5A): reduced the expression back to below the level of the controls
- expression of IL-6 in the tissue ([3]; q.o.d. for 2 weeks, FIG. 5B): reduced the expression back to below the level of the controls
- expression of MMP13 in the tissue ([3]; q.o.d. for 2 weeks, FIG. 5C): reduced the expression back to below the level of the controls
- senescent cells in the joint [3]: cleared senescent cells from the joint
- weight bearing: favoring of the unoperated hind limb over the operated hind limb [4]: abrogated this effect
- destruction of the proteoglycan layer (histopathology) [5]: completely abrogated this effect
- SpO2 levels compared with untreated controls [1]: statistically significant increases
- expression of SASP factors and senescent cell markers MMP3, MMP13, PAI1, p21, IGFBP2, IL-1A, IL-1B ([6]; after one treatment cycle (timepoint 1, week 4)): reduced expression
- expression of SASP factors and senescent cell markers in the aortic arch ([6]; multiple treatment cycles (timepoint 2, week 8)): reduced expression of most markers
- reduction of surface area covered by plaques in the descending aorta [7]: about 45%
- lymphocyte counts versus vehicle treated mice [8]: equivalent
- platelet counts versus vehicle treated mice [8]: equivalent

Structure (SMILES): CC[C@H](C(=O)N1CCCC[C@H]1C(=O)O[C@H](CCc1ccc(OC)c(OC)c1)c1cccc(OCC(=O)NCC(CNC(=O)COc2cccc([C@@H](CCc3ccc(OC)c(OC)c3)OC(=O)[C@@H]3CCCCN3C(=O)[C@@H](CC)c3cc(OC)c(OC)c(OC)c3)c2)CN(C)C)c1)c1cc(OC)c(OC)c(OC)c1 [AP2018]
- SpO2 levels compared with untreated controls [1]: statistically significant increases
